Measured values as given in the supplement of paper PMC10307832.

Experiments:
Assay in all cases: relative viability (nuclei count vs DMSO), 5 days (fraction); higher = more cells survive
[1] = compound: CC1=CC=C(C=C1)C(=O)CN2C3=C(CCCC3)SC2=N [Pifithrin_alpha] + CS(=O)(=O)CCNCc1ccc(-c2ccc3ncnc(Nc4ccc(OCc5cccc(F)c5)c(Cl)c4)c3c2)o1 [Lapatinib] (partner 2 µM)
Method in brief: (§1)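 Lung cancer cell lines, seeded in 1536-well plates, were treated the following day by pin tool with a single drug or with five library-drug doses (not always all listed) in √10 steps on top of a fixed anchor-drug dose. Cells were fixed and nuclei stained in one step after 5 days, and nuclei were counted. Relative viability is the nuclei count for treated wells divided by that for vehicle wells, reported as medians of duplicate plates.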

[2] = compound: CC1=CC=C(C=C1)C(=O)CN2C3=C(CCCC3)SC2=N [Pifithrin_alpha] + CC1(C)CCC(c2ccc(Cl)cc2)=C(CN2CCN(c3ccc(C(=O)NS(=O)(=O)c4ccc(N[C@H](CCN5CCOCC5)CSc5ccccc5)c(S(=O)(=O)C(F)(F)F)c4)cc3)CC2)C1 [Navitoclax] (partner 0.5 µM)
Method in brief: as §1

Axitinib + Vorinostat = compound: CNC(=O)c1ccccc1Sc1ccc2c(/C=C/c3ccccn3)n[nH]c2c1 [Axitinib] + O=C(CCCCCCC(=O)Nc1ccccc1)NO [Vorinostat] (partner 1 µM)
Method in brief: as §1

Bemcentinib + Dasatinib = compound: Nc1nc(Nc2ccc3c(c2)CC[C@@H](N2CCCC2)CC3)nn1-c1cc2c(nn1)-c1ccccc1CCC2 [Bemcentinib] + Cc1nc(Nc2ncc(C(=O)Nc3c(C)cccc3Cl)s2)cc(N2CCN(CCO)CC2)n1 [Dasatinib] (partner 0.075 µM)
Method in brief: as §1

Row | Cell Line | relative viability ([1]; first compound 1 µM) | relative viability ([1]; first compound 3.162 µM) | relative viability ([1]; first compound 10 µM) | relative viability ([1]; first compound 31.62 µM) | relative viability ([1]; first compound 100 µM) | relative viability ([2]; first compound 1 µM) | relative viability ([2]; first compound 3.162 µM) | relative viability ([2]; first compound 10 µM) | relative viability ([2]; first compound 31.62 µM) | relative viability ([2]; first compound 100 µM) | relative viability (Axitinib + Vorinostat; first compound 0.005 µM) | relative viability (Axitinib + Vorinostat; first compound 0.01581 µM) | relative viability (Axitinib + Vorinostat; first compound 0.05 µM) | relative viability (Axitinib + Vorinostat; first compound 0.1581 µM) | relative viability (Axitinib + Vorinostat; first compound 0.5 µM) | relative viability (Bemcentinib + Dasatinib; first compound 0.04 µM) | relative viability (Bemcentinib + Dasatinib; first compound 0.1265 µM) | relative viability (Bemcentinib + Dasatinib; first compound 0.4 µM) | relative viability (Bemcentinib + Dasatinib; first compound 1.265 µM) | relative viability (Bemcentinib + Dasatinib; first compound 4 µM)
1 | LOU-NH91 | 0.576 | 0.604 | 0.633 | 0.492 | 0.493 | 0.502 | 0.576 | 0.643 | 0.409 | 0.517 | 0.966 | 0.765 | 1.01 | 0.875 | 0.939 | 0.508 | 0.568 | 0.59 | 0.335 | 0.61
2 | LU99A | 0.852 | 1.21 | 1.12 | – | 1.18 | 0.823 | 0.782 | 0.874 | – | 0.892 | 0.514 | 0.472 | 0.56 | 0.465 | 0.409 | 0.489 | 0.568 | 0.519 | 0.661 | 0.573
3 | NCI-H358 | 0.507 | 0.447 | 0.486 | 0.425 | 0.429 | – | – | – | – | – | 0.698 | 0.675 | 0.689 | 0.573 | 0.726 | 0.153 | 0.146 | 0.148 | 0.163 | 0.171
4 | NCI-H441 | – | – | – | – | – | 0.652 | 0.813 | 0.587 | 0.481 | 0.831 | 0.78 | 0.659 | 0.855 | 0.627 | 0.911 | 0.536 | 0.773 | 0.862 | 0.649 | 0.609
5 | NCI-H522 | – | – | – | – | – | – | – | – | – | – | 0.919 | 0.909 | 0.863 | 0.855 | 0.702 | 0.768 | 0.975 | 0.886 | 0.844 | 0.829
6 | NCI-H661 | 0.673 | 0.488 | 0.446 | 0.508 | 0.486 | – | – | – | – | – | 0.79 | 0.861 | 0.776 | 0.779 | 0.873 | 0.77 | 0.877 | 0.924 | 0.832 | 0.913
7 | NCI-H1299 | 0.976 | 0.985 | 1.02 | 0.73 | 0.947 | 1.07 | 1.08 | 1 | 0.952 | 1 | – | – | – | – | – | – | – | – | – | –
8 | NCI-H1563 | 0.623 | 0.863 | 0.931 | 0.769 | 1.01 | – | – | – | – | – | – | – | – | – | – | 0.403 | 0.429 | 0.448 | 0.413 | 0.444
9 | NCI-H1623 | – | – | – | – | – | – | – | – | – | – | – | – | – | – | – | 0.51 | 0.504 | 0.528 | 0.639 | 0.473
10 | NCI-H1648 | – | – | – | – | – | – | – | – | – | – | 0.37 | 0.514 | 0.316 | 0.34 | 0.363 | – | – | – | – | –
11 | NCI-H1703 | 1.07 | 1.03 | 1.04 | 0.863 | 1.32 | 1.34 | 0.99 | 1.1 | 0.674 | 1.12 | – | – | – | – | – | – | – | – | – | –
12 | NCI-H1792 | 0.68 | 1.24 | 0.83 | 0.508 | 0.878 | 0.438 | 0.753 | 0.339 | 0.325 | 0.529 | – | – | – | – | – | 0.859 | 0.956 | 1.17 | 0.91 | 0.873
13 | NCI-H2342 | – | – | – | – | – | – | – | – | – | – | 0.98 | 0.784 | 0.666 | 0.665 | 0.72 | 0.316 | 0.318 | 0.313 | 0.264 | 0.308
14 | SW 900 | – | – | – | – | – | – | – | – | – | – | 0.51 | – | 0.434 | 0.472 | 0.829 | 0.587 | 0.672 | 0.586 | 0.493 | 0.563
